According to US20050204416A1, “Plant cells having receptor polypeptides” (priority 2004, published 2005):

Experiments:
[1] = biological target: T1, VP16-human estrogen receptor alpha (ERa) chimeric polypeptide (Homo sapiens, UniProt P03372, G400V)
Procedure: About 50 selected lines were obtained and cultured at 27° C. on N6 media containing 5 mg/ml bialaphos, with transfer to fresh media occurring about every 2 weeks. […] After incubation for about 40 hours, callus cells were examined under a dissecting microscope at 10× to 60× magnification.

[2] = biological target: T1, VP16-human estrogen receptor alpha (ERa) chimeric polypeptide; experiment: Transgenic Arabidopsis T2 seedlings containing VP16ERα and ERE-GFP constructs, green fluorescence; assay type: cell-based; parameters: expressed in transfected cells; host or cells: transgenic rice callus (A1); transgenic Arabidopsis T2 seedlings (A2); Agrobacterium binary vector Bin4-EUTG-10::VPCR-ER-1#81, CaMV35S promoter

T1 sequence (P03372 with tags, fused parts or gaps G400V): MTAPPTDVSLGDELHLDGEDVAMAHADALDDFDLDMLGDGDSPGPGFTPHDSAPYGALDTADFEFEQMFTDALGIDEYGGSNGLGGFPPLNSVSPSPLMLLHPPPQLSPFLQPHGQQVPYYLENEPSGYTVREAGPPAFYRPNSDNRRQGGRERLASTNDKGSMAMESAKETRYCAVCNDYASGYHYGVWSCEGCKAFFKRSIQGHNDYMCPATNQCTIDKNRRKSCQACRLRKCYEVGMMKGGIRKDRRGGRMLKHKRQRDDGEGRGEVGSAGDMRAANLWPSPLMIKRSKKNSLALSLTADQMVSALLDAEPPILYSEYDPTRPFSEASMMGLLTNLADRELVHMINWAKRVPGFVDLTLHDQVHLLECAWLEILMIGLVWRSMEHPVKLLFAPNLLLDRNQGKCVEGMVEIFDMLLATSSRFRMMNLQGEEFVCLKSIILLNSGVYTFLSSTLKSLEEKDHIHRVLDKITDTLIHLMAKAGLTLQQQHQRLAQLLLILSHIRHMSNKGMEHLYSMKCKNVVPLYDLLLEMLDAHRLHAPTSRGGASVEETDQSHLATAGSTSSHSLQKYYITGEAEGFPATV

4-hydroxytamoxifen
green fluorescence (GFP reporter) in the presence of the exogenous compound [1]: moderate to very bright green fluorescence
green fluorescence (GFP reporter) of T2 seedlings [2]: moderate to strong green fluorescence
